Common to all, as to experiment: NCI tumour cell line growth inhibition, 48 h
In assay [1] the test system is HCT-116 colon.
Assay [2] deals with IGROV1 ovarian.
Assay [3] concerns OVCAR-3 ovarian.
In assay [4] the test system is OVCAR-4 ovarian.
For assay [5], the system named is SF-268 CNS.
For assay [6], the system named is SNB-19 CNS.
Assay [7] deals with CCRF-CEM leukemia.
The test system of assay [8] is HT29 colon.
The subject of assay [9] is MDA-MB-435.

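Cultured in 96-well plates, cells were exposed to test compound for 48 hours across five concentrations. GI50 is the concentration that inhibits growth by half. TGI is the concentration that stops growth completely.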

This passage reports TGI and GI50 results from PubChem BioAssay (NCI).

As for `Cc1ccc(OCC(=O)N2N=C(c3ccccc3)CC2(O)c2ccccc2)cc1` (configuration not stated), the TGI was more than 100 µM in assay [1]; more than 100 µM in assay [2]; more than 100 µM in assay [3]; 71.6 µM in assay [4]; more than 100 µM in assay [5]; more than 100 µM in assay [6].

On to `CCOc1ccccc1NC(=O)C(=O)CC(=O)c1c(C)n([O-])c2ccccc2[n+]1=O`, for which the TGI was more than 100 µM in assay [7]; more than 100 µM in [1]; more than 100 µM in [8]; more than 100 µM in assay [2]; 75.8 µM in [3]; more than 100 µM in assay [4]. Further, the TGI in assay [5] and in [6] was more than 100 µM in each case.

Turning to `CNC(P(=O)([O-])[O-])P(=O)([O-])[O-].N.N.[Pt+2]`, the GI50 in [1], in assay [2], in assay [3], in assay [4], in assay [5] and in assay [6] was more than 100 µM throughout. Moreover, the TGI in assay [1], in assay [2], in assay [3], in [4], in assay [5] and in assay [6] was more than 100 µM throughout.

Regarding `O=C(c1ccccc1)C(c1ccccc1)C1(O)C(=O)Nc2c(Cl)cc(Cl)cc21` (configuration not stated), the TGI in assay [7] was 49.7 µM; in [8], 58 µM; in assay [3] it was more than 100 µM; in assay [4], 28 µM; in assay [5], 51.9 µM; in assay [6], 55.3 µM.

Regarding `CCC[CH2][Sn-]([CH2]CCC)([CH2]CCC)[O]c1cc(Cl)c(Cl)cc1Cl`, the GI50 in assay [1] was 0.154 µM; in assay [8], 0.162 µM; in assay [2], 0.162 µM; in assay [9], 0.16 µM; in assay [3], 0.176 µM; in assay [4] it was 0.148 µM. Further, the GI50 is 0.229 µM in assay [5] and 0.143 µM in assay [6]. Besides, the TGI in assay [1] came to 0.318 µM; in assay [8], 0.404 µM; in [2], 0.379 µM; in [9], 0.359 µM; in [3], 0.365 µM; in assay [4], 0.398 µM. The TGI in assay [5] was 1.05 µM; in [6] it was 0.445 µM.

On to `CC1=C(C)C(=O)c2c(cc3ccc4ccccc4n23)C1=O`, for which the TGI in assay [7], in assay [8], in assay [2], in assay [3], in assay [4] and in [5] was more than 100 µM each time. Besides, the TGI in assay [6] was more than 100 µM.

For `O=c1c2ccccc2[nH]c(=S)n1-c1ccc(Br)cc1`, the TGI in assay [1], in [8], in assay [2], in [3], in [4] and in assay [5] was more than 100 µM in each case. Moreover, in assay [6], the TGI was more than 100 µM.

With `COc1cc(CCc2ccc(OCCN(C)C)cc2)cc(OC)c1OC`, the TGI in assay [7], in assay [1], in assay [8], in assay [2], in assay [3] and in [4] was more than 100 µM each time. The TGI in [5] and in [6] was more than 100 µM throughout.

For the compound `O=C(c1ccccc1)C(C(=O)c1ccccc1)C1(O)C(=O)c2ccccc2C1=O`, the TGI in assay [7] was 83 µM; in [8], more than 100 µM; in assay [2], more than 100 µM; in assay [3] it was more than 100 µM; in [5], more than 100 µM; in [6], more than 100 µM.

For `CCOC(=O)[C@@]1(C)C=C2O[C@@H]3OC4(CCCCC4)O[C@@H]3C2=C2C(O)=CC=C(O)[C@]21C(=O)OC`, the TGI in assay [7], in [1], in [8], in assay [2], in assay [3] and in [4] was more than 68 µM in each case. For the same compound, the TGI in assay [5] and in assay [6] was more than 68 µM throughout.

Consider `CC[C@H](C)N(CCN)C(=O)c1cc2ccccc2c(-c2ccccc2Cl)n1`, for which the TGI in assay [7] came out at 15.7 µM; in assay [1] it was 14.9 µM; in assay [8], 20.5 µM; in assay [2], 26.2 µM; in assay [3] it was 34 µM; in assay [4], 30.1 µM. Also, the TGI in assay [5] worked out at 7.81 µM; in assay [6], 30.2 µM.

For `Nc1ccn(CCOC(=O)c2ccccc2)c(=O)n1`, the TGI in assay [7], in [1], in assay [8], in assay [2], in assay [3] and in assay [4] was more than 100 µM each time. The TGI in [5] was more than 100 µM.

As to `Cc1cc2c(c(C#N)c1C)NC(=O)CCC2=O`, the TGI in assay [7], in [1], in assay [8], in assay [2], in assay [3] and in assay [4] was more than 100 µM throughout.

`Cn1c(=O)nc2n(-c3ccc(Cl)cc3)c3ccc(Cl)cc3nc-2c1=O`: the TGI amounted to 85.6 µM in assay [7]; 20.9 µM in assay [1]; 59.2 µM in [8]; 51.1 µM in [2]; 8.14 µM in assay [3]; 19.7 µM in assay [5].

In the case of `Nn1c(-c2ccccc2)nc2ccc(Br)cc2c1=O`, the TGI in assay [7] is 76.4 µM; in assay [1] it was more than 100 µM; in [8] it was more than 100 µM; in [2], more than 100 µM; in assay [3], 81.9 µM; in assay [4], 86.7 µM. The TGI in assay [5] and in assay [6] was more than 100 µM in each case.

On to `Cc1nc2c(nc1C)C(=O)c1cc(O)ccc1C2=O`, for which the TGI in assay [7] was more than 100 µM; in [1], more than 100 µM; in assay [8] it was more than 87.2 µM; in assay [2], more than 100 µM; in assay [3], more than 100 µM; in [4], more than 100 µM. The TGI in assay [5] and in assay [6] was more than 100 µM throughout.
